Test results reported in article PMC7311426, “An amphipathic peptide with antibiotic activity against multidrug-resistant Gram-negative bacteria” (Nature Communications, 2020).
In brackets after ≈: the same amount, converted by molar mass. Where two headings read alike, the source gives them in different places. Residues, ends and D or L forms follow the SMILES beside them.

How the values were obtained:
Experiment in all cases: microbe, parasite or virus in culture
A. baumannii = A. baumannii Greece CI, XDR; PmxR; MHB; mode of 6 replicates
Procedure, shortened: (§1)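 Broth microdilution in MHB, 2-fold 12-point series from 128 or 64 down to 0.06 or 0.03 μg mL^−1, 5 × 10^5 CFU mL^−1. Extra runs in CAMHB per CLSI and in MHB with 1% agarose; n ≥ 6.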

E. coli = system: E. coli
Procedure, shortened: as §1

K. pneumoniae = conditions: for MIC, broth microdilution: plate 1, colony 1; for MIC K. pneumoniae ATCC BAA-2146: NDM-1 strain, NBS Corning 3641 plate
Procedure, shortened: as §1

P. aeruginosa = system: P. aeruginosa
Procedure, shortened: as §1

Q: How did the “BMD MIC” value (A. baumannii) turn out when `CC(C)[C@@H]1NC(=O)[C@H](Cc2ccc(O)cc2)NC(=O)[C@H](Cc2c[nH]c3ccccc23)NC(=O)[C@@H](NC(=O)[C@H](Cc2ccccc2)NC(=O)CN)CSSC[C@@H](C(=O)N[C@@H](CC(N)=O)C(=O)O)NC(=O)[C@H](CCCNC(=N)N)NC(=O)[C@H](CCCNC(=N)N)NC(=O)[C@H](Cc2ccc(O)cc2)NC(=O)[C@@H]2CSSC[C@H](NC1=O)C(=O)N[C@@H](C)C(=O)N[C@@H](CCCNC(=N)N)C(=O)N[C@@H](CCCNC(=N)N)C(=O)N[C@@H](CC(N)=O)C(=O)NCC(=O)N[C@@H](C)C(=O)N[C@@H](CCCNC(=N)N)C(=O)N[C@@H](C(C)C)C(=O)N2` [AA139] (HELM PEPTIDE1{G.F.C.W.Y.V.C.A.R.R.N.G.A.R.V.C.Y.R.R.C.N}$PEPTIDE1,PEPTIDE1,3:R3-20:R3|PEPTIDE1,PEPTIDE1,7:R3-16:R3$$$V2.0) was run?
A: 0.5 µg/mL

Q: And the “MIC against ESBL producing E. coli DSA 443” value (E. coli)?
A: 0.5 µg/mL (≈ 0.196 µM)

Q: And the “MIC, broth microdilution” value (E. coli)?
A: 0.06 µg/mL (≈ 0.0235 µM)

Q: What about the “MIC, broth microdilution” value (E. coli; E. coli AUD172 spontaneous mutant, AA139 selection 4X, plate 2, colony 2, drug-free passage 1) of the same compound?
A: 0.12 µg/mL (≈ 0.0471 µM)

Q: What about the “MIC, broth microdilution” value (E. coli; E. coli AUD172 spontaneous mutant, AA139 selection 4X, plate 2, colony 2, drug-free passage 5) of the same compound?
A: 0.25 µg/mL (≈ 0.098 µM)

Q: What about the “BMD MIC” value (E. coli; E. coli ESBL20150072, mcr-1 pos, ESBL, CAMHB, AA139) of the same compound?
A: 0.5 µg/mL

Q: What about the “BMD MIC” value (K. pneumoniae) of the same compound?
A: 0.5 µg/mL

Q: What about the “MIC K. pneumoniae BAA-2146 (NDM-1)” value (K. pneumoniae; BMD, MHB, 18-20 h 37 °C, mode of ≥6 independent biological replicates) of the same compound?
A: 1 µg/mL (≈ 0.392 µM)

Q: What about the “MIC, broth microdilution” value (K. pneumoniae; K. pneumoniae 3010 spontaneous mutant, AA139 selection 4X, drug-free passage 1) of the same compound?
A: 2, 2 µg/mL

Q: What about the “MIC, broth microdilution” value (K. pneumoniae; K. pneumoniae 3010 spontaneous mutant, AA139 selection 4X, drug-free passage 5) of the same compound?
A: 2, 2 µg/mL

Q: And the “MIC, broth microdilution” value (K. pneumoniae; K. pneumoniae 3010 spontaneous mutant, AA139 selection 8X, drug-free passage 1)?
A: 2, 2 µg/mL

Q: What about the “MIC, broth microdilution” value (K. pneumoniae; K. pneumoniae 3010 spontaneous mutant, AA139 selection 8X, drug-free passage 5) of the same compound?
A: 2, 2 µg/mL

Q: What about the “BMD MIC” value (K. pneumoniae; K. pneumoniae ATCC 700603 (K6), MDR, OXA-2/SHV-18, CAMHB, mode of 6 replicates) of the same compound?
A: 2 µg/mL

Q: What about the “BMD MIC” value (K. pneumoniae; K. pneumoniae ATCC 700603 (K6), MDR, OXA-2/SHV-18, MHB, mode of 6 replicates) of the same compound?
A: 0.5 µg/mL

Q: And the “BMD MIC” value (K. pneumoniae; K. pneumoniae BAA-2146, MDR, ESBL, NDM-1 pos, MHB, mode of 6 replicates)?
A: 1 µg/mL

Q: And the “BMD MIC” value (K. pneumoniae; K. pneumoniae Greece CI 8_GR_13, XDR, KPC-2, PmxR, MHB, mode of 6 replicates)?
A: 16 µg/mL

Q: What about the “MIC, broth microdilution” value (K. pneumoniae; K. pneumoniae ST258 spontaneous mutant, AA139 selection 4X, drug-free passage 1) of the same compound?
A: 2, 2 µg/mL

Q: What about the “MIC, broth microdilution” value (K. pneumoniae; K. pneumoniae ST258 spontaneous mutant, AA139 selection 4X, drug-free passage 5) of the same compound?
A: 2, 2 µg/mL

Q: What about the “MIC K. pneumoniae ATCC BAA-2146” value (K. pneumoniae; CAMHB, replicate 1) of the same compound?
A: 1 µg/mL (≈ 0.392 µM)

Q: And the “MIC K. pneumoniae ATCC BAA-2146” value (K. pneumoniae; CAMHB, replicate 2)?
A: 1 µg/mL (≈ 0.392 µM)

Q: What about the “MIC K. pneumoniae ATCC BAA-2146” value (K. pneumoniae; CAMHB, replicate 3) of the same compound?
A: 1 µg/mL (≈ 0.392 µM)

Q: What about the “MIC K. pneumoniae ATCC BAA-2146” value (K. pneumoniae; CAMHB, replicate 4) of the same compound?
A: 2 µg/mL (≈ 0.784 µM)

Q: What about the “MIC K. pneumoniae ATCC BAA-2146” value (K. pneumoniae; CAMHB, replicate 5) of the same compound?
A: 1 µg/mL (≈ 0.392 µM)

Q: And the “MIC K. pneumoniae ATCC BAA-2146” value (K. pneumoniae; CAMHB, replicate 6)?
A: 1 µg/mL (≈ 0.392 µM)

Q: What about the “MIC K. pneumoniae ATCC BAA-2146” value (K. pneumoniae; CAMHB, replicate 7) of the same compound?
A: 0.5 µg/mL (≈ 0.196 µM)

Q: And the “MIC K. pneumoniae ATCC BAA-2146” value (K. pneumoniae; CAMHB, replicate 8)?
A: 0.5 µg/mL (≈ 0.196 µM)

Q: What about the “MIC K. pneumoniae ATCC BAA-2146” value (K. pneumoniae; CAMHB, replicate 9) of the same compound?
A: 0.5 µg/mL (≈ 0.196 µM)

Q: And the “MIC K. pneumoniae ATCC BAA-2146” value (K. pneumoniae; CAMHB, replicate 10)?
A: 0.25 µg/mL (≈ 0.098 µM)

Q: What about the “MIC K. pneumoniae ATCC BAA-2146” value (K. pneumoniae; CAMHB, replicate 11) of the same compound?
A: 0.5 µg/mL (≈ 0.196 µM)

Q: What about the “MIC K. pneumoniae ATCC BAA-2146” value (K. pneumoniae; CAMHB, replicate 12) of the same compound?
A: 0.5 µg/mL (≈ 0.196 µM)

Q: What about the “MIC K. pneumoniae ATCC BAA-2146” value (K. pneumoniae; CAMHB, replicate 13) of the same compound?
A: 1 µg/mL (≈ 0.392 µM)

Q: What about the “MIC K. pneumoniae ATCC BAA-2146” value (K. pneumoniae; CAMHB, replicate 14) of the same compound?
A: 1 µg/mL (≈ 0.392 µM)

Q: What about the “MIC against P. aeruginosa (ATCC 27853)” value (P. aeruginosa) of the same compound?
A: 1.0 µg/mL (≈ 0.392 µM)

Q: What about the “MIC, broth microdilution” value (P. aeruginosa) of the same compound?
A: 1 µg/mL (≈ 0.392 µM)

Q: And the “MIC, broth microdilution” value (P. aeruginosa; P. aeruginosa ATCC 27853 spontaneous mutant, AA139 selection 4X, plate 1, colony 1, drug-free passage 1)?
A: 1, 1 µg/mL

Q: And the “MIC, broth microdilution” value (P. aeruginosa; P. aeruginosa ATCC 27853 spontaneous mutant, AA139 selection 4X, plate 1, colony 1, drug-free passage 5)?
A: 1, 1 µg/mL

Q: What about the “MIC, broth microdilution” value (P. aeruginosa; P. aeruginosa ATCC 27853 spontaneous mutant, AA139 selection 4X, plate 1, colony 2, drug-free passage 1) of the same compound?
A: 1, 1 µg/mL

Q: And the “MIC, broth microdilution” value (P. aeruginosa; P. aeruginosa ATCC 27853 spontaneous mutant, AA139 selection 4X, plate 1, colony 2, drug-free passage 5)?
A: 1, 1 µg/mL

Q: What about the “MIC, broth microdilution” value (P. aeruginosa; P. aeruginosa ATCC 27853 spontaneous mutant, AA139 selection 4X, plate 1, colony 3, drug-free passage 1) of the same compound?
A: 1, 1 µg/mL

Q: What about the “MIC, broth microdilution” value (P. aeruginosa; P. aeruginosa ATCC 27853 spontaneous mutant, AA139 selection 4X, plate 1, colony 3, drug-free passage 5) of the same compound?
A: 1, 1 µg/mL

Q: What about the “MIC, broth microdilution” value (P. aeruginosa; P. aeruginosa ATCC 27853 spontaneous mutant, AA139 selection 4X, plate 1, colony 4, drug-free passage 1) of the same compound?
A: 2 µg/mL (≈ 0.784 µM)

Q: And the “MIC, broth microdilution” value (P. aeruginosa; P. aeruginosa ATCC 27853 spontaneous mutant, AA139 selection 4X, plate 1, colony 4, drug-free passage 5)?
A: 1 µg/mL (≈ 0.392 µM)

Q: And the “MIC, broth microdilution” value (P. aeruginosa; P. aeruginosa ATCC 27853 spontaneous mutant, AA139 selection 4X, plate 1, colony 5, drug-free passage 1)?
A: 2, 2 µg/mL

Q: And the “MIC, broth microdilution” value (P. aeruginosa; P. aeruginosa ATCC 27853 spontaneous mutant, AA139 selection 4X, plate 1, colony 5, drug-free passage 5)?
A: 2, 2 µg/mL

Q: What about the “MIC, broth microdilution” value (P. aeruginosa; P. aeruginosa ATCC 27853 spontaneous mutant, AA139 selection 4X, plate 1, colony 6, drug-free passage 1) of the same compound?
A: 1, 1 µg/mL

Q: And the “MIC, broth microdilution” value (P. aeruginosa; P. aeruginosa ATCC 27853 spontaneous mutant, AA139 selection 4X, plate 1, colony 6, drug-free passage 5)?
A: 1, 1 µg/mL

Q: And the “MIC, broth microdilution” value (P. aeruginosa; P. aeruginosa ATCC 27853 spontaneous mutant, AA139 selection 4X, plate 2, colony 1, drug-free passage 1)?
A: 1, 1 µg/mL

Q: What about the “MIC, broth microdilution” value (P. aeruginosa; P. aeruginosa ATCC 27853 spontaneous mutant, AA139 selection 4X, plate 2, colony 1, drug-free passage 5) of the same compound?
A: 1, 1 µg/mL

Q: What about the “MIC, broth microdilution” value (P. aeruginosa; P. aeruginosa ATCC 27853 spontaneous mutant, AA139 selection 4X, plate 2, colony 2, drug-free passage 1) of the same compound?
A: 1, 1 µg/mL

Q: And the “MIC, broth microdilution” value (P. aeruginosa; P. aeruginosa ATCC 27853 spontaneous mutant, AA139 selection 4X, plate 2, colony 2, drug-free passage 5)?
A: 1, 1 µg/mL

Q: And the “MIC, broth microdilution” value (P. aeruginosa; P. aeruginosa ATCC 27853 spontaneous mutant, AA139 selection 4X, plate 2, colony 3, drug-free passage 1)?
A: 1 µg/mL (≈ 0.392 µM)

Q: What about the “MIC, broth microdilution” value (P. aeruginosa; P. aeruginosa ATCC 27853 spontaneous mutant, AA139 selection 4X, plate 2, colony 3, drug-free passage 5) of the same compound?
A: 0.5 µg/mL (≈ 0.196 µM)

Q: What about the “MIC, broth microdilution” value (P. aeruginosa; P. aeruginosa ATCC 27853 spontaneous mutant, AA139 selection 4X, plate 2, colony 4, drug-free passage 1) of the same compound?
A: 1 µg/mL (≈ 0.392 µM)

Q: And the “MIC, broth microdilution” value (P. aeruginosa; P. aeruginosa ATCC 27853 spontaneous mutant, AA139 selection 4X, plate 2, colony 4, drug-free passage 5)?
A: 0.5 µg/mL (≈ 0.196 µM)
